Data on 21 compounds can be found in patent US10308644B2, “Heterocyclic compounds as immunomodulators” (Incyte Corporation, priority 2016, dated 2019).

Structures are written as SMILES.

This experiment deals with PD-1/PD-L1 (Homo sapiens (Human), UniProt Q9NZQ7). As to the kind of experiment: PD-1/PD-L1 Homogeneous Time-Resolved Fluorescence (HTRF) Binding Assay. Conditions: recombinant human PD-1 (3 nM) and PD-L1 (10 nM), 25° C., PBS pH 7.4. A digest of the protocol:
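Fc-tagged human PD-1 (25-167, 3 nM) and His-tagged PD-L1 (19-238, 10 nM) preincubated with inhibitor 40 min in PBS pH 7.4, 0.05% Tween-20, 0.1% BSA, 1% DMSO, 25 °C. Binding detected by HTRF (Eu anti-IgG/APC anti-His, 665/620 nm) after 60 min; IC50 from percent control activity.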
(In TR-FRET formats the signal depends on donor and acceptor labels being close together.)

Chain of PD-1/PD-L1 (Q9NZQ7 19-238): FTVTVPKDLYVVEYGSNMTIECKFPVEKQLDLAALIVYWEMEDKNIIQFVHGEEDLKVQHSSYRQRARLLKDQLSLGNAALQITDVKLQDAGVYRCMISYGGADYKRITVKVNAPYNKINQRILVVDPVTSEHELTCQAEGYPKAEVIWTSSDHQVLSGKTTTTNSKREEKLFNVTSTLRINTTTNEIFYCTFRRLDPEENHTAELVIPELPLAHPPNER

In the case of `Cc1c(-c2nc3cc(CN4CC[C@H](C(=O)O)C4)cc(Cl)c3o2)cccc1-c1cccc(Nc2nccc3cc(CN4CC[C@@H](O)C4)cnc23)c1Cl` [Example 81, (S)-1-((7-chloro-2-(2′-chloro-3′-(3-(((R)-3-hydroxypyrrolidin-1-yl)methyl)-1,7-naphthyridin-8-ylamino)-2-methylbiphenyl-3-yl)benzo[d]oxazol-5-yl)methyl)pyrrolidine-3-carboxylic acid], the IC50 is not above 10 nM.

Regarding `Cc1c(Nc2ncnc3cc(CN4CC[C@@H](O)C4)cnc23)cccc1-c1cccc(-c2nc3cc(CN4CC[C@@H](C(=O)O)C4)cc(C#N)c3o2)c1C` [Example 139, (R)-1-((7-cyano-2-(3′-(7-(((R)-3-hydroxypyrrolidin-1-yl)methyl)pyrido[3,2-d]pyrimidin-4-ylamino)-2,2′-dimethylbiphenyl-3-yl)benzo[d]oxazol-5-yl)methyl)pyrrolidine-3-carboxylic acid], the IC50 was not above 10 nM.

In the case of `Cc1c(Nc2nccc3cc(CN4CCCC4)cnc23)cccc1-c1cccc(-c2nc3cc(CN4CC[C@@H](C(=O)O)C4)cc(C#N)c3o2)c1C` [Example 134, (R)-1-((7-cyano-2-(2,2′-dimethyl-3′-(3-(pyrrolidin-1-ylmethyl)-1,7-naphthyridin-8-ylamino)biphenyl-3-yl)benzo[d]oxazol-5-yl)methyl)pyrrolidine-3-carboxylic acid], the IC50 was not above 10 nM.

`Cc1c(Nc2nccc3cc(CN4CC[C@H](O)C4)cnc23)cccc1-c1cccc(-c2nc3cc(CN4CCC[C@H]4C(=O)O)cc(C#N)c3o2)c1C` [Example 35, (S)-1-((7-cyano-2-(3′-(3-(((S)-3-hydroxypyrrolidin-1-yl)methyl)-1,7-naphthyridin-8-ylamino)-2,2′-dimethylbiphenyl-3-yl)benzo[d]oxazol-5-yl)methyl)pyrrolidine-2-carboxylic acid]: the IC50 is not above 10 nM.

For `Cc1c(Nc2nccc3cc(CN4CC[C@@H](O)C4)cnc23)cccc1-c1cccc(-c2nc3cc(CN[C@H]4CCC[C@H]4C(=O)O)cc(C#N)c3o2)c1C` [Example 175, (1R,2S)-2-((7-cyano-2-(3′-(3-(((R)-3-hydroxypyrrolidin-1-yl)methyl)-1,7-naphthyridin-8-ylamino)-2,2′-dimethylbiphenyl-3-yl)benzo[d]oxazol-5-yl)methylamino) cyclopentanecarboxylic acid], the IC50 was not above 10 nM.

In the case of `Cc1c(NC(=O)c2nc3c(n2C)CCN(C2CC2)C3)cccc1-c1cccc(-c2nc3cc(CN4CC[C@H](C(=O)O)C4)cc(C#N)c3o2)c1C` [Example 39, (S)-1-((7-cyano-2-(3′-(5-cyclopropyl-1-methyl-4,5,6,7-tetrahydro-1H-imidazo[4,5-c]pyridine-2-carboxamido)-2,2′-dimethylbiphenyl-3-yl)benzo[d]oxazol-5-yl)methyl)pyrrolidine-3-carboxylic acid], the IC50 was not above 10 nM.

As to `CCN(C)CC(=O)N1Cc2nc(-c3cccc(-c4cccc(-c5nc6cc(CN7CC8(C(=O)O)CC7C8)cc(C#N)c6o5)c4C)c3C)oc2C1` [Example 242, 2-((7-cyano-2-(3′-(5-(N-ethyl-N-methylglycyl)-5,6-dihydro-4H-pyrrolo[3,4-d]oxazol-2-yl)-2,2′-dimethyl-[1,1′-biphenyl]-3-yl)benzo[d]oxazol-5-yl)methyl)-2-azabicyclo[2.1.1]hexane-4-carboxylic acid], the IC50 is not above 10 nM.

In the case of `Cc1c(-c2nc3cc(CN4CC[C@@](C)(C(=O)O)C4)cc(C#N)c3o2)cccc1-c1cccc(Nc2nccc3cc(CN4CC[C@@H](O)C4)cnc23)c1Cl` [Example 187, (R)-1-((2-(2′-chloro-3′-(3-(((R)-3-hydroxypyrrolidin-1-yl)methyl)-1,7-naphthyridin-8-ylamino)-2-methylbiphenyl-3-yl)-7-cyanobenzo[d]oxazol-5-yl)methyl)-3-methylpyrrolidine-3-carboxylic acid], the IC50 is not above 10 nM.

Consider `Cc1c(Nc2nccc3cc(CN4CC[C@@H](C(=O)O)C4)cnc23)cccc1-c1cccc(-c2nc3cc(CNC[C@H](C)O)cc(C#N)c3o2)c1C` [Example 210, (R)-1-((8-(3′-(7-cyano-5-(((S)-2-hydroxypropylamino)methyl)benzo[d]oxazol-2-yl)-2,2′-dimethylbiphenyl-3-ylamino)-1,7-naphthyridin-3-yl)methyl)pyrrolidine-3-carboxylic acid], for which the 50% inhibitory concentration (IC50) was not above 10 nM.

Turning to `Cc1c(-c2nc3cc(CN4CC[C@@H](O)C4)cc(C#N)c3o2)cccc1-c1cccc(NC(=O)c2nc3c(n2C)CCN(CC2CCC(C)(C(=O)O)CC2)C3)c1Cl` (single isomer, unassigned; peak 1) [Example 268], the IC50 was not above 10 nM.

As for `Cc1c(Nc2nccc3cc(CN4CC[C@@H](O)C4)cnc23)cccc1-c1cccc(-c2nc3cc(CN[C@H]4C[C@H](C(=O)O)C4)cc(C#N)c3o2)c1C` [Example 181, trans-3-((7-cyano-2-(3′-(3-(((R)-3-hydroxypyrrolidin-1-yl)methyl)-1,7-naphthyridin-8-ylamino)-2,2′-dimethylbiphenyl-3-yl)benzo [d]oxazol-5-yl)methylamino)cyclobutane carboxylic acid], the IC50 is not above 10 nM.

Regarding `Cc1c(-c2nc3cc(CN4CC[C@@H](C(=O)O)C4)cc(C#N)c3o2)cccc1-c1cccc(Nc2nccc3nccnc23)c1Cl` [Example 14, (R)-1-((2-(2′-chloro-2-methyl-3′-(pyrido[4,3-b]pyrazin-5-ylamino)biphenyl-3-yl)-7-cyanobenzo[d]oxazol-5-yl)methyl)pyrrolidine-3-carboxylic acid], the IC50 was not above 10 nM.

`Cc1c(-c2nc3cc(CN4CC[C@@](C)(C(=O)O)C4)cc(C#N)c3o2)cccc1-c1cccc(NC(=O)c2nc3c(n2C)CN(C)C3)c1Cl` [Example 158, (R)-1-((2-(2′-chloro-3′-(1,5-dimethyl-1,4,5,6-tetrahydropyrrolo[3,4-d]imidazole-2-carboxamido)-2-methylbiphenyl-3-yl)-7-cyanobenzo[d]oxazol-5-yl)methyl)-3-methyl pyrrolidine-3-carboxylic acid]: the concentration for half-maximal inhibition (IC50) is not above 10 nM.

Turning to `CCN(C)CC(=O)N1Cc2nc(-c3cccc(-c4cccc(-c5nc6cc(CN7CCC(C(=O)O)CC7)cc(C#N)c6o5)c4C)c3C)oc2C1` [Example 244, 1-((7-cyano-2-(3′-(5-(N-ethyl-N-methylglycyl)-5,6-dihydro-4H-pyrrolo[3,4-d]oxazol-2-yl)-2,2′-dimethyl-[1,1′-biphenyl]-3-yl)benzo[d]oxazol-5-yl)methyl)piperidine-4-carboxylic acid], the IC50 was not above 10 nM.

Regarding `Cc1c(Nc2nccc3cc(CN4CC[C@H](O)C4)cnc23)cccc1-c1cccc(-c2nc3cc(CN4CCC(C(=O)O)CC4)cc(Cl)c3o2)c1C` [Example 22, (S)-1-((7-chloro-2-(3′-(3-((3-hydroxypyrrolidin-1-yl)methyl)-1,7-naphthyridin-8-ylamino)-2,2′-dimethylbiphenyl-3-yl)benzo[d]oxazol-5-yl)methyl)piperidine-4-carboxylic acid], the IC50 is not above 10 nM.

Regarding `Cc1c(-c2nc3cc(CN4CC[C@@H](C(=O)O)C4)cc(C#N)c3o2)cccc1-c1cccc(-c2nc3c(s2)CN(C(=O)CN(C)C)C3)c1C` [Example 105, (R)-1-((7-cyano-2-(3′-(5-(2-(dimethylamino)acetyl)-5,6-dihydro-4H-pyrrolo[3,4-d]thiazol-2-yl)-2,2′-dimethylbiphenyl-3-yl)benzo[d]oxazol-5-yl)methyl)pyrrolidine-3-carboxylic acid], the IC50 was not above 10 nM.

In the case of `Cc1c(-c2nc3c(o2)CN(C(=O)[C@@H]2CCCN2C)C3)cccc1-c1cccc(-c2nc3cc(CN4CC[C@@H](C(=O)O)C4)cc(C#N)c3o2)c1C` [Example 124, (R)-1-((7-cyano-2-(2,2′-dimethyl-3′-(5-(methyl-L-prolyl)-5,6-dihydro-4H-pyrrolo[3,4-d]oxazol-2-yl)-[1,1′-biphenyl]-3-yl)benzo[d]oxazol-5-yl)methyl)pyrrolidine-3-carboxylic acid], the IC50 was not above 10 nM.

Take `Cc1c(-c2nc3c(o2)CCNC3)cccc1-c1cccc(-c2nc3cc(CN4CC[C@H](C(=O)O)C4)cc(Cl)c3o2)c1C` [Example 76, (S)-1-((7-chloro-2-(2,2′-dimethyl-3′-(4,5,6,7-tetrahydrooxazolo[4,5-c]pyridin-2-yl)-[1,1′-biphenyl]-3-yl)benzo[d]oxazol-5-yl)methyl)pyrrolidine-3-carboxylic acid]: the IC50 was not above 10 nM.

With `CCN(C)CC(=O)N1Cc2nc(-c3cccc(-c4cccc(-c5nc6cc(CN7CC[C@@](C)(C(=O)O)C7)cc(C#N)c6o5)c4C)c3C)sc2C1` [Example 218, (R)-1((7-cyano-2-(3′-(5-(2-(ethyl(methyl)amino)acetyl)-5,6-dihydro-4H-pyrrolo[3,4-d]thiazol-2-yl)-2,2′-dimethylbiphenyl-3-yl)benzo[d]oxazol-5-yl)methyl)-3-methylpyrrolidine-3-carboxylic acid], the IC50 is not above 10 nM.

`Cc1c(-c2nc3cc(CN4CC[C@@](C)(C(=O)O)C4)cc(C#N)c3o2)cccc1-c1cccc(NC(=O)c2nc3c(n2C)CCN(C[C@@H](C)O)C3)c1Cl` [Example 157, (R)-1-((2-(2′-chloro-3′-(5-((R)-2-hydroxypropyl)-1-methyl-4,5,6,7-tetrahydro-1H-imidazo[4,5-c]pyridine-2-carboxamido)-2-methylbiphenyl-3-yl)-7-cyanobenzo[d]oxazol-5-yl)methyl)-3-methylpyrrolidine-3-carboxylic acid]: the IC50 was not above 10 nM.

Take `Cc1c(-c2nc3cc(CN4CC[C@H](C(=O)O)C4)cc(C#N)c3o2)cccc1-c1cccc(Nc2nccc3cc(CN4CC[C@H](O)C4)cnc23)c1Cl` [Example 33, (S)-1-((2-(2′-chloro-3′-(3-(((S)-3-hydroxypyrrolidin-1-yl)methyl)-1,7-naphthyridin-8-ylamino)-2-methylbiphenyl-3-yl)-7-cyanobenzo[d]oxazol-5-yl)methyl)pyrrolidine-3-carboxylic acid]: the IC50 was not above 10 nM.

Usually IC50 stands for the concentration that inhibits the measured activity by half.
